Measurements from ChEMBL document CHEMBL1201862, “PubChem BioAssay data set” (2004).
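Step 1: Grow cells in 96-well plates. Step 2: Expose to compound for 48 hours at 5 concentrations. Step 3: Interpolate endpoints linearly; if unreached, use highest concentration. The concentration for 50% growth inhibition is given as GI50.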 The source made the active and inactive calls. No stated cut-off is given here; in the data, active = GI50 up to about 1.1 µM and inactive = higher.

Columns and labels:
Assay in all cases: NCI-60 cell line screen, 48 h
NCI/ADR-RES = test system: NCI/ADR-RES
OVCAR-3 = test system: OVCAR-3
PC-3 = test system: PC-3
HL-60 = test system: HL-60
HCT-15 = test system: HCT-15
RPMI-8226 = test system: RPMI-8226
SK-MEL-5 = test system: SK-MEL-5
SN12C = test system: SN12C
MDA-MB-435 = test system: MDA-MB-435
SNB-75 = test system: SNB-75
HOP-92 = test system: HOP-92
CCRF-CEM = test system: CCRF-CEM
SK-OV-3 = test system: SK-OV-3
KM12 = test system: KM12
LOX IMVI = test system: LOX IMVI
HOP-62 = test system: HOP-62
786-0 = test system: 786-0
MDA-MB-231 = test system: MDA-MB-231
HCC 2998 = test system: HCC 2998
NCI-H23 = test system: NCI-H23

CC1(C)[C@H]2CC[C@](C)(C2)[C@]1(S)Cc1ccccn1
GI50 (NCI/ADR-RES): 50.5 µM (inactive)
GI50 (OVCAR-3): 21.7 µM (inactive)
GI50 (PC-3): 21.7 µM (inactive)
GI50 (HL-60): 11.2 µM (inactive)
GI50 (HCT-15): 41.7 µM
GI50 (RPMI-8226): 21.5 µM (inactive)
GI50 (SK-MEL-5): 21.8 µM (inactive)
GI50 (SN12C): 56.8 µM (inactive)
GI50 (MDA-MB-435): 26.3 µM (inactive)
GI50 (SNB-75): 23.9 µM (inactive)
GI50 (HOP-92): 34.5 µM (inactive)
GI50 (CCRF-CEM): 5 µM (inactive)
GI50 (SK-OV-3): 29.8 µM (inactive)
GI50 (KM12): 42.9 µM (inactive)
GI50 (LOX IMVI): 17.3 µM (inactive)
GI50 (HOP-62): 29.6 µM (inactive)
GI50 (786-0): 27 µM (inactive)
GI50 (MDA-MB-231): 37 µM (inactive)
GI50 (HCC 2998): 18.5 µM (inactive)
GI50 (NCI-H23): 44.6 µM (inactive)

O=C(c1c2c(cc3c1CC1(Cc4cc5c(cc4C1)CCCC5)C3)CCCC2)C(Br)Br
GI50 (NCI/ADR-RES): 19.4 µM (inactive)
GI50 (OVCAR-3): 18.7 µM (inactive)
GI50 (PC-3): 12.5 µM (inactive)
GI50 (HL-60): 3.18 µM (inactive)
GI50 (HCT-15): 16.1 µM
GI50 (RPMI-8226): 5.04 µM (inactive)
GI50 (SK-MEL-5): 5.24 µM (inactive)
GI50 (SN12C): 18.6 µM (inactive)
GI50 (MDA-MB-435): 14 µM (inactive)
GI50 (SNB-75): 5.08 µM (inactive)
GI50 (HOP-92): 13.4 µM (inactive)
GI50 (CCRF-CEM): 1.6 µM (inactive)
GI50 (SK-OV-3): 21.4 µM (inactive)
GI50 (KM12): 22.1 µM (inactive)
GI50 (LOX IMVI): 1.79 µM (inactive)
GI50 (HOP-62): > 51.2 µM (inactive)
GI50 (786-0): 14.6 µM (inactive)
GI50 (MDA-MB-231): 17.4 µM (inactive)
GI50 (HCC 2998): 21.5 µM (inactive)
GI50 (NCI-H23): 14.6 µM (inactive)
